We go through 4 molecules from patent publication US12274775B2, “Fatty acid esters as anti-Malassezia agents” (SYMRISE AG, priority 2019, dated 2025).

In brackets after ≈: the same amount, converted by molar mass. Like-named read-outs stand apart in the source and are kept apart here. Bounds are passed on as bounds.

The subject of data set [1] is M. furfur. As to the kind of experiment: Agar dilution test on mDixon agar, minimal inhibitory concentration (MIC). It counts as cell-based. The following applies: Malassezia furfur. The method, then:
(§1) The fatty acid esters and their mixtures were tested for growth inhibition against Malassezia. The following reference strains were included:
(§2) Tests were performed on solid media using agar dilution tests. Stock solutions of test substances were prepared in mDixon-Agar (cf. Table 2). Lower test concentrations were obtained by diluting stock solutions with fresh agar.
(§3) Preparation of liquid agar was carried out in temperated water bath. Required amounts of test substances were weighed in 130 ml of Dixon Agar and mixed with fresh Dixon-Agar to reach desired concentrations of test substances. Agar solutions with test substances were then poured into 24 well-plates. The pH value in all assays was maintained at 5.5. Preparation of test substances was done on weight per volume base. All results are expressed in parts per million (1 ppm=0.0001%).
(§4) Briefly, Malassezia strains were cultivated on selective agar for pathogenic fungi (Merck) and overlaid with a thin layer of cold-sterilized olive oil. […] Incubation was carried out at 32° C. over a maximal duration of 14 days with regular inspection and documentation of growth status. Minimal inhibitory concentrations (MICs) were determined as the lowest concentrations of test compound without visible growth. Each experiment was repeated to confirm results.

The test system of data set [2] is M. globosa. The description is as above. It counts as cell-based. The following applies: Malassezia globosa. The method, then: as §1, §2, §3, §4
For data set [3], the system named is M. pachydermatis. The description is as above. The conditions noted are these: Malassezia pachydermatis. It counts as cell-based. As for the experimental part: as §1, §2, §3, §4
Data set [4] concerns M. restricta. The description is as above. It counts as cell-based. The following applies: 336 h. The method, then: as §1, §2, §3, §4
In data set [5] the test system is M. sympodialis. Described as above. It counts as cell-based. The conditions noted are these: 336 h. As for the experimental part:
as §1, §2, §3, §4

For data set [6], the system named is M. globosa CBS 7705. The experiment in a line: Ester cleavage by Malassezia cells, GC quantification. It counts as cell-based. The conditions noted are these: 32° C. The method, then: (§5) These two species are the most frequently detected ones on human scalp and skin and their hydrolytic/lipolytic activities on fatty acid esters has not yet been investigated before.
(§6) Malassezia strains were cultivated on selective agar for pathogenic fungi (Merck) and overlaid with a thin layer of cold-sterilized olive oil. After 3 to 5 days, fungal cells were harvested and resuspended in the respective test substance. Cell numbers were determined using a Neubauer counting chamber (cf. Table 12). Sterile Petri dishes (diameter: 3 cm) were prepared containing selective agar for pathogenic fungi, overlaid with 100 μl of the test suspensions and incubated at 32° C.
(§7) After defined incubation times (0, 3, 6, 12, 24, 48, and 72 h), test suspensions were removed from the agar surface by rinsing with 1 ml chloroform and stored under cool conditions in gastight tubes until analysis. Chloroform was removed by evaporation at 30° C. in the fume hood and the remaining liquid mixed with 1 ml isopropanol, transferred in Eppendorf tubes and centrifuged. The supernatant was transferred to new Eppendorf tubes.
(§8) In order to analytically quantify esters and free fatty acid resulting from cleavage by Malassezia enzymes, gas chromatography was used.
(§9) For quantification (range 0.1-10 wt %) a multilevel calibration method with internal standard (ISTD, docosane [C22]; 500 mg in MtBE) was used. An equal amount of corresponding acid, ester and possible side products [0.2-50 mg/10 mL] were mixed with ISTD, diluted to an appropriate concentration and 1 μL [split1:50] was directly used for GC-analysis with the following conditions: GC Agilent 6890 with a 20 m ZB-Wax column [0.20 mm×0.20 μm], injector temperature of 250° C., detector temperature of 275° C., flow gas of 1.3 mL/min hydrogen [constant]. For temperature profile 60° C. to 240° C. with a heating rate of 9° C./min was used.

Data set [7] relates to M. restricta CBS 7877. The description is as above. It counts as cell-based. The conditions noted are these: 32° C. As for the experimental part: as §5, §6, §7, §8, §9
Data set [8] can be described thus: Ester cleavage assays without Malassezia cells. It counts as physicochemical. The conditions noted are these: until the end of the experiment after 72 hours. The method, then:
as §6, §7, §8
For quantification (range 0.1-10 wt %) a multilevel calibration method with internal standard (ISTD, docosane [C22]; 500 mg in MtBE) was used. […]

[9] abbreviates: CBS1878, 336 h, M. furfur CBS 1878, agar dilution, pH 5.5, 32° C., up to 14 days, read-out: Minimal inhibitory concentration (MIC).
Setting [10] is: CBS7019, 336 h, M. furfur CBS 7019, agar dilution, pH 5.5, 32° C., up to 14 days, read-out: Minimal inhibitory concentration (MIC).
The mark [11] stands for this setting: 336 h, M. globosa PM1, agar dilution, pH 5.5, 32° C., up to 14 days, read-out: Minimal inhibitory concentration (MIC).
[12] abbreviates: CBS7705, 336 h, M. globosa CBS 7705, agar dilution, pH 5.5, 32° C., up to 14 days, read-out: Minimal inhibitory concentration (MIC).
Setting [13] is: CBS7966, 336 h, M. globosa CBS 7966, agar dilution, pH 5.5, 32° C., up to 14 days, read-out: Minimal inhibitory concentration (MIC).
The mark [14] stands for this setting: 336 h, M. pachydermatis 1892, agar dilution, pH 5.5, 32° C., up to 14 days, read-out: Minimal inhibitory concentration (MIC).
Setting [15] is: CBS1879, 336 h, M. pachydermatis CBS 1879, agar dilution, pH 5.5, 32° C., up to 14 days, read-out: Minimal inhibitory concentration (MIC).
The mark [16] stands for this setting: M. restricta CBS 7877, agar dilution, pH 5.5, 32° C., up to 14 days, read-out: Minimal inhibitory concentration (MIC).
[17] abbreviates: pH 5.5, M. sympodialis ATCC 42132, pH 5.5, 32° C., up to 14 days, read-out: Minimal inhibitory concentration (MIC).
Where [18] appears, read: pH 5.5, M. sympodialis CBS 7222, pH 5.5, 32° C., up to 14 days, read-out: Minimal inhibitory concentration (MIC).
Where [19] appears, read: pH 5.5, M. sympodialis CBS 7979, pH 5.5, 32° C., up to 14 days, read-out: Minimal inhibitory concentration (MIC).
[20] abbreviates: pH 5.5, M. sympodialis DSM 6171, pH 5.5, 32° C., up to 14 days, read-out: Minimal inhibitory concentration (MIC).
The mark [21] stands for this setting: M. globosa CBS 7705, after 6 hours.
The mark [22] stands for this setting: M. globosa CBS 7705, after 12 hours.
The mark [23] stands for this setting: M. restricta CBS 7877, after 6 hours.
The mark [24] stands for this setting: M. restricta CBS 7877, after 12 hours.
Setting [25] is: 336 h, pH 5.5, read-out: Minimal inhibitory concentration (MIC).

In the case of `CCCCCCCC(=O)OCCCO` [3-Hydroxypropyl caprylate], the MIC in data set [1] (setting [9]) came to 2000 µg/mL (≈ 9.89 mM); in data set [1] (setting [10]), 2000 µg/mL (≈ 9.89 mM); in data set [2] (setting [11]), 500 µg/mL (≈ 2.47 mM); in data set [2] (setting [12]), 1000 µg/mL (≈ 4.94 mM); in data set [2] (setting [13]), 1000 µg/mL (≈ 4.94 mM); in data set [3] (setting [14]), 500 µg/mL (≈ 2.47 mM). Further, the MIC in data set [3] (setting [15]) came out at 330 µg/mL (≈ 1.63 mM); in data set [4] (setting [16]) it was 1000 µg/mL (≈ 4.94 mM); in data set [5] (setting [17]), 1000 µg/mL (≈ 4.94 mM); in data set [5] (setting [18]) it was 1000 µg/mL (≈ 4.94 mM); in data set [5] (setting [19]), 2000 µg/mL (≈ 9.89 mM); in data set [5] (setting [20]) it was 2000 µg/mL (≈ 9.89 mM). For the same molecule, the ester cleaved in data set [6] (setting [21]) stood at 75%; in data set [6] (setting [22]), 90%; in data set [7] (setting [23]) it was 21%; in data set [7] (setting [24]), 65%. The “free fatty acid detected in assays without Malassezia cells” value in data set [8] is “no caprylic acid was detected”.
For `C=CCCCCCCCCC(=O)OCCCO` [3-Hydroxypropyl undecylenoate], the MIC in data set [1] (setting [9]) was 8000 µg/mL (≈ 33 mM); in data set [1] (setting [10]) it was 8000 µg/mL (≈ 33 mM); in data set [2] (setting [11]) it was 2000 µg/mL (≈ 8.25 mM); in data set [2] (setting [12]), 1000 µg/mL (≈ 4.13 mM); in data set [2] (setting [13]), 2000 µg/mL (≈ 8.25 mM); in data set [3] (setting [14]), 1000 µg/mL (≈ 4.13 mM). Also, the MIC came to 2000 µg/mL (≈ 8.25 mM) in data set [3] (setting [15]); 1000 µg/mL (≈ 4.13 mM) in data set [4] (setting [16]); 2000 µg/mL (≈ 8.25 mM) in data set [5] (setting [17]); 4000 µg/mL (≈ 16.5 mM) in data set [5] (setting [18]); 1000 µg/mL (≈ 4.13 mM) in data set [5] (setting [19]); 2000 µg/mL (≈ 8.25 mM) in data set [5] (setting [20]). For the same molecule, the ester cleaved in data set [6] (setting [21]) is 95%; in data set [6] (setting [22]), 99.5%; in data set [7] (setting [23]) it was 56%; in data set [7] (setting [24]), 96%. In data set [8], the “free fatty acid detected in assays without Malassezia cells” value was “no undecylenic acid was detected”.
Regarding `CCCCCCCC(=O)O` [Caprylic acid, caprylic acid], the MIC in data set [1] (setting [9]) was 1000 µg/mL (≈ 6.93 mM); in data set [1] (setting [10]) it was 2000 µg/mL (≈ 13.9 mM); in data set [2] (setting [11]), 500 µg/mL (≈ 3.47 mM); in data set [2] (setting [13]) it was 1000 µg/mL (≈ 6.93 mM); in data set [3] (setting [14]) it was 200 µg/mL (≈ 1.39 mM); in data set [3] (setting [15]), 100 µg/mL (≈ 0.693 mM). For the same molecule, the MIC was determined as 200 µg/mL (≈ 1.39 mM) in data set [4] (setting [16]); 330 µg/mL (≈ 2.29 mM) in data set [5] (setting [17]); 330 µg/mL (≈ 2.29 mM) in data set [5] (setting [18]); 1000 µg/mL (≈ 6.93 mM) in data set [5] (setting [19]); 500 µg/mL (≈ 3.47 mM) in data set [5] (setting [20]).
Turning to `C=CCCCCCCCCC(=O)O` [Undecylenic acid, 10-undecylenic acid], the MIC in data set [1] (CBS1878, 336 h, pH 5.5, read-out: Minimal inhibitory concentration (MIC)) was 2000 µg/mL (≈ 10.9 mM); in data set [1] (CBS7019, 336 h, pH 5.5, read-out: Minimal inhibitory concentration (MIC)), over 2000 µg/mL; in data set [2] (setting [25]), 677 µg/mL (≈ 3.67 mM); in data set [2] (CBS7705, 336 h, pH 5.5, read-out: Minimal inhibitory concentration (MIC)), 330 µg/mL (≈ 1.79 mM); in data set [2] (CBS7966, 336 h, pH 5.5, read-out: Minimal inhibitory concentration (MIC)) it was 2000 µg/mL (≈ 10.9 mM); in data set [3] (setting [25]) it was 500 µg/mL (≈ 2.71 mM). Besides, the MIC was 1000 µg/mL (≈ 5.43 mM) in data set [3] (CBS1879, 336 h, pH 5.5, read-out: Minimal inhibitory concentration (MIC)); 500 µg/mL (≈ 2.71 mM) in data set [4] (pH 5.5, read-out: Minimal inhibitory concentration (MIC)); 100 µg/mL (≈ 0.543 mM) in data set [5] (pH 5.5, read-out: Minimal inhibitory concentration (MIC), M. sympodialis ATCC 42132, pH 5.5, 32° C., up to 14 days); 100 µg/mL (≈ 0.543 mM) in data set [5] (pH 5.5, read-out: Minimal inhibitory concentration (MIC), M. sympodialis CBS 7222, pH 5.5, 32° C., up to 14 days); 200 µg/mL (≈ 1.09 mM) in data set [5] (pH 5.5, read-out: Minimal inhibitory concentration (MIC), M. sympodialis CBS 7979, pH 5.5, 32° C., up to 14 days); 100 µg/mL (≈ 0.543 mM) in data set [5] (pH 5.5, read-out: Minimal inhibitory concentration (MIC), M. sympodialis DSM 6171, pH 5.5, 32° C., up to 14 days).
